Measurements reported in patent publication US11767310B2, “Nicotinamide RIPK1 inhibitors” (AbbVie Inc., priority 2021, dated 2023).
Read-outs that look alike come from different tables or passages of the source.

Assays:
Experiment in all cases: Kinase binding screen
Conditions in all cases: read-out: Percent Control at 100 nM Compound Concentration
[1] = target: LATS1 (Homo sapiens (Human), UniProt O95835)
[2] = target: PIK3CD (Homo sapiens (Human), UniProt O00329)
[3] = target: ASK1 (Homo sapiens (Human), UniProt Q99683)
[4] = target: KIT(A829P) (Homo sapiens (Human), UniProt P10721, A829P)
KIT(A829P), sequence (P10721 26-976 A829P): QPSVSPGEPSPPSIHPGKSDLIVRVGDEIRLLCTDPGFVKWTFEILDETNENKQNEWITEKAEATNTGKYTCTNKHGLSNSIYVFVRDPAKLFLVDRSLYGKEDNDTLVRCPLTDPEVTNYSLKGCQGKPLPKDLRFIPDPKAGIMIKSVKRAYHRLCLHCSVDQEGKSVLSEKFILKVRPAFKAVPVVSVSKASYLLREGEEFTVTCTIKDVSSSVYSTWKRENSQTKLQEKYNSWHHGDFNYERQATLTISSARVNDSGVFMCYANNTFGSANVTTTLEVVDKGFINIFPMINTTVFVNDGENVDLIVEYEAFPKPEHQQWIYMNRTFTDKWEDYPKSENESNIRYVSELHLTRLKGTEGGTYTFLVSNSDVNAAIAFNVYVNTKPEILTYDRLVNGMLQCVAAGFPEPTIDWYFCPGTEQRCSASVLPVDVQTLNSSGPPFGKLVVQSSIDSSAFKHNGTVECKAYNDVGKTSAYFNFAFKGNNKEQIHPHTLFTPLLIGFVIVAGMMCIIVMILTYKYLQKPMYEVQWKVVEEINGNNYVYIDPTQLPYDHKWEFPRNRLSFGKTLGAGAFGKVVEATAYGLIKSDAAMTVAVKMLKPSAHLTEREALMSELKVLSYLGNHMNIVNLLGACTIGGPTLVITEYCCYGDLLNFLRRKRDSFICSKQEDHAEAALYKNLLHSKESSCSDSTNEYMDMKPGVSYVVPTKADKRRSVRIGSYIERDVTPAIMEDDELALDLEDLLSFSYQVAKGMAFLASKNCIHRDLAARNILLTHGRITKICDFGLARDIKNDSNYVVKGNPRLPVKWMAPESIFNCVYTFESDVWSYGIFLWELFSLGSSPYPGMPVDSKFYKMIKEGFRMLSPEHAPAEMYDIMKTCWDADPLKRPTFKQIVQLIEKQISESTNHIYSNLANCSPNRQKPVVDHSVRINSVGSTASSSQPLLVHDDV

[5] = target: SRC (Homo sapiens (Human), UniProt P12931)
[6] = target: TYK2(JH2domain-pseudokinase) (Homo sapiens (Human), UniProt P29597)
[7] = target: AURKA (Homo sapiens (Human), UniProt O14965)
[8] = target: TIE1 (Homo sapiens (Human), UniProt P35590)
TIE1, sequence (P35590 22-1138): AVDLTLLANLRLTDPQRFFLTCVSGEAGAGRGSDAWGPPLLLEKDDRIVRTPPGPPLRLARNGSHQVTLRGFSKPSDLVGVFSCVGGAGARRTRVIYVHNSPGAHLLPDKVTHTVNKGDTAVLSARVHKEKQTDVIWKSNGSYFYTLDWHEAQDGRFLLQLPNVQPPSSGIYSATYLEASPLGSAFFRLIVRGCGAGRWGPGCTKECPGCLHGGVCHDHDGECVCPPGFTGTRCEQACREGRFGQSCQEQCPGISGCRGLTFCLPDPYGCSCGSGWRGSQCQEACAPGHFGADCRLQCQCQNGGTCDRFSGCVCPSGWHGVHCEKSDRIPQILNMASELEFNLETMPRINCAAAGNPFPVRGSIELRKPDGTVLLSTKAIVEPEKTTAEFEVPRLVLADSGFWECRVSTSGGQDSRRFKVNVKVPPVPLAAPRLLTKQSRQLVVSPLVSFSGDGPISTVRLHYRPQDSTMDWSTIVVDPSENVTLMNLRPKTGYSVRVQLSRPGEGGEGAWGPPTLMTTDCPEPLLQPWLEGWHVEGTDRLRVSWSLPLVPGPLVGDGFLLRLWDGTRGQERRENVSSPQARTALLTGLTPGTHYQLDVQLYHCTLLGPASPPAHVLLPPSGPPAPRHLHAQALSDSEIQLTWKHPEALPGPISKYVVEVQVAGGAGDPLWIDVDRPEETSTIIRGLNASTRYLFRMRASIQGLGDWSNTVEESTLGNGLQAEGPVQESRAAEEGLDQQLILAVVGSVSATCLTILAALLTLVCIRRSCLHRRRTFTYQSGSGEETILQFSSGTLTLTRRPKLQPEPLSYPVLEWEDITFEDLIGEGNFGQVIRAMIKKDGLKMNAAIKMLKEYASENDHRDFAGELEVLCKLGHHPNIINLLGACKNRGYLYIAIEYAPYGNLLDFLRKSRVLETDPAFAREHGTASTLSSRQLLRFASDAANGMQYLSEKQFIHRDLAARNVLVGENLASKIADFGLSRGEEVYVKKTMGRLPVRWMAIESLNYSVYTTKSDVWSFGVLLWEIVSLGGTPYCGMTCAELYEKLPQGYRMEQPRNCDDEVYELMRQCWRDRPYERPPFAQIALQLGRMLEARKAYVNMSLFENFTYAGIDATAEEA

[9] = target: EGFR(T790M) (Homo sapiens (Human), UniProt P00533, T790M)
[10] = target: FLT3(K663Q) (Homo sapiens (Human), UniProt P36888, K663Q)
[11] = target: SGK3 (Homo sapiens (Human), UniProt Q96BR1)
[12] = target: PRKX (Homo sapiens (Human), UniProt P51817)
[13] = target: PIK3CA(I800L) (Homo sapiens (Human), UniProt P42336, I800L)
[14] = target: RIPK1 (Homo sapiens (Human), UniProt Q13546)
[15] = target: VEGFR2 (Homo sapiens (Human), UniProt P35968)
[16] = target: MEK1 (Homo sapiens (Human), UniProt Q02750)
[17] = target: JAK2(JH1domain-catalytic) (Homo sapiens (Human), UniProt O60674)
[18] = target: CAMK2D (Homo sapiens (Human), UniProt Q13557)
CAMK2D, sequence (Q13557 whole entry): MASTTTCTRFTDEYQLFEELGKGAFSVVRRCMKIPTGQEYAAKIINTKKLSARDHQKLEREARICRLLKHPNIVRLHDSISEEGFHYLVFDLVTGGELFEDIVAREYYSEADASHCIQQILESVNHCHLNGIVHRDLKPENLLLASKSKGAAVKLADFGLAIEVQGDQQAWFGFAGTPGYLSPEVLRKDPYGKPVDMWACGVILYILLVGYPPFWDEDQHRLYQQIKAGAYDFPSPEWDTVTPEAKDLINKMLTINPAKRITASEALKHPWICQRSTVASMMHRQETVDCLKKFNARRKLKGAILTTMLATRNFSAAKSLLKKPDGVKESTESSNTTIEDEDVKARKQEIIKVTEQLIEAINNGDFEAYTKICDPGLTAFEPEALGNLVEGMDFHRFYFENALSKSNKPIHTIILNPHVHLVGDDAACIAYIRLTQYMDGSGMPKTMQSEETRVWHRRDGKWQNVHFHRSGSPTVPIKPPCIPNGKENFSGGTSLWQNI

[19] = target: ABL1(Q252H)-phosphorylated (Homo sapiens (Human), UniProt P00519, Q252H)
[20] = target: EPHB1 (Homo sapiens (Human), UniProt P54762)
[21] = target: CDK4-cyclinD1 (Homo sapiens (Human), UniProt P11802)
[22] = target: CDK4-cyclinD3 (Homo sapiens (Human), UniProt P11802)
[23] = target: RIPK4 (Homo sapiens (Human), UniProt P57078)
[24] = target: SGK2 (Homo sapiens (Human), UniProt Q9HBY8)
[25] = target: PKN1 (Homo sapiens (Human), UniProt Q16512)
PKN1, sequence (Q16512 whole entry): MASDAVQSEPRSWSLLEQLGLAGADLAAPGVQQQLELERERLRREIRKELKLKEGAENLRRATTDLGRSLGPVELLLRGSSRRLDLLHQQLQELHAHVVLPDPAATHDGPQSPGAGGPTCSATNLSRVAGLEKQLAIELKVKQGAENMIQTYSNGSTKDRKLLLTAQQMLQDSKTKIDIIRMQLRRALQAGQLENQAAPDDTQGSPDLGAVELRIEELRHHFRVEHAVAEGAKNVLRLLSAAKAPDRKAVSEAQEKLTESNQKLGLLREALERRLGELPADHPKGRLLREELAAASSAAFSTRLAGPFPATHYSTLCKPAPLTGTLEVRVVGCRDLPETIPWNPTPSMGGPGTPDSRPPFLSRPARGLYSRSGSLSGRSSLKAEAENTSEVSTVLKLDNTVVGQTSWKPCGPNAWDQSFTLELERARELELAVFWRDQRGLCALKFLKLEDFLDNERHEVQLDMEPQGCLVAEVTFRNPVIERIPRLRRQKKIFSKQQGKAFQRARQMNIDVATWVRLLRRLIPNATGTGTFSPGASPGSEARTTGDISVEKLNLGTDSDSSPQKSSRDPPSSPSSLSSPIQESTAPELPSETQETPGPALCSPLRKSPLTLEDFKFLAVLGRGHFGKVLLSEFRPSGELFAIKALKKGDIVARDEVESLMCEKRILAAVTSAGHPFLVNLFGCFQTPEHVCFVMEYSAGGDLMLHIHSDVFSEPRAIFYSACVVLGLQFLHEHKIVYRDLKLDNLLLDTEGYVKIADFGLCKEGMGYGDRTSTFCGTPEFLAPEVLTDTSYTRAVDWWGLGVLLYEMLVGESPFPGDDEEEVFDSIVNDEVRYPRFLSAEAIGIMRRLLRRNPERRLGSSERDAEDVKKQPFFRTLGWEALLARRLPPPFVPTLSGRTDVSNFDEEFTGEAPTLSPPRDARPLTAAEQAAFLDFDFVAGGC

[26] = target: PKAC-beta (Homo sapiens (Human), UniProt P22694)
[27] = target: ULK2 (Homo sapiens (Human), UniProt Q8IYT8)
[28] = target: JAK1(JH1domain-catalytic) (Homo sapiens (Human), UniProt P23458)
JAK1(JH1domain-catalytic), sequence (P23458 875-1153): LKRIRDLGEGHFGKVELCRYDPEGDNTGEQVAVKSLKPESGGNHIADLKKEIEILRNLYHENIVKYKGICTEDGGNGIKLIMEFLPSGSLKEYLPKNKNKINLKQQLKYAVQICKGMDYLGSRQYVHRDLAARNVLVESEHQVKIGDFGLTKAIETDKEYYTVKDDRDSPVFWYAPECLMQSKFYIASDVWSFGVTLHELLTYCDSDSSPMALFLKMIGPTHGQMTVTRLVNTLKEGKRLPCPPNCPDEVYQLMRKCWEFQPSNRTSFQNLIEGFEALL

LATS1, sequence (O95835 whole entry): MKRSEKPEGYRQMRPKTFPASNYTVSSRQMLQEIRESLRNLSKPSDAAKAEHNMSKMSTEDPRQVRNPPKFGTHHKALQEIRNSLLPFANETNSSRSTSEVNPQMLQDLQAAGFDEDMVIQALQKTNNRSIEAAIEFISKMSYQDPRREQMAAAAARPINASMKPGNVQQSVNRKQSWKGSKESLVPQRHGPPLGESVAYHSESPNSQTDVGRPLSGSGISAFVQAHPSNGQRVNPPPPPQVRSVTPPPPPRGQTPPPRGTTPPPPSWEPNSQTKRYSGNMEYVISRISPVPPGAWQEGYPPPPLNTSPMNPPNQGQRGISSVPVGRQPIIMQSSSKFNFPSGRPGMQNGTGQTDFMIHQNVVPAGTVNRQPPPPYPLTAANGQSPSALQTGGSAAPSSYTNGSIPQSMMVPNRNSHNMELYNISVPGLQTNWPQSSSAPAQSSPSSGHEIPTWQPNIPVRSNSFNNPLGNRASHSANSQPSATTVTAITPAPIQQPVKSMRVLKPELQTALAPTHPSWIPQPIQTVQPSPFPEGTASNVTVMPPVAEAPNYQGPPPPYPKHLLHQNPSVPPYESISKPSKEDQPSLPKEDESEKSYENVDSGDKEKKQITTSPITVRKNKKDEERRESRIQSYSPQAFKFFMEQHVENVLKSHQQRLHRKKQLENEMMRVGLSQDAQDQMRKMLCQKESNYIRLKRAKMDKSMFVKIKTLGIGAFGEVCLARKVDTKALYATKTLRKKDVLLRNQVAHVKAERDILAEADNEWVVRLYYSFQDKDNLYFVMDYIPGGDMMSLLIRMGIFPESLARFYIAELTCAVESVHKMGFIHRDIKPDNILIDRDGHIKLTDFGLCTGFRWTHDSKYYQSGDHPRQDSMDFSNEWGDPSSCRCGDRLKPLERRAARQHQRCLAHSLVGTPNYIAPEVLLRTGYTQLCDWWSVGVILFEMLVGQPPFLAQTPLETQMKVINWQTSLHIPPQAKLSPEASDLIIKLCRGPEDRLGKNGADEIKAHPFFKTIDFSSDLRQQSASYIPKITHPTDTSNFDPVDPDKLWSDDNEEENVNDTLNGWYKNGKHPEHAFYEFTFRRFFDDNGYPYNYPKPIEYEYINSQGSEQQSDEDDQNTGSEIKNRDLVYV

Molecule CN(C[C@@H](O)Cc1ccccc1)C(=O)c1cncc(C#Cc2cnn(C(F)F)c2)c1 [Example 2, (S)-5-((1-(difluoromethyl)-1H-pyrazol-4-yl)ethynyl)-N-(2-hydroxy-3-phenylpropyl)-N-methylnicotinamide] has a remaining activity at 0.1 µM ([1]; LATS1) of 100%, a remaining activity at 0.1 µM ([2]; PIK3CD) of 99% and a remaining activity at 0.1 µM ([3]; ASK1) of 88%. The remaining activity at 0.1 µM ([4]; KIT(A829P)) was 100%, the remaining activity at 0.1 µM ([5]; SRC) was 97% and the remaining activity at 0.1 µM ([6]; TYK2(JH2domain-pseudokinase)) was 100%. The remaining activity at 0.1 µM ([7]; AURKA) was 100%, the remaining activity at 0.1 µM ([8]; TIE1) was 100% and the remaining activity at 0.1 µM ([9]; EGFR(T790M)) was 100%. It also gave a remaining activity at 0.1 µM ([10]; FLT3(K663Q)) of 100%, a remaining activity at 0.1 µM ([11]; SGK3) of 100% and a remaining activity at 0.1 µM ([12]; PRKX) of 100%. It also gave a remaining activity at 0.1 µM ([13]; PIK3CA(I800L)) of 96%, a remaining activity at 0.1 µM ([14]; RIPK1) of 26% and a remaining activity at 0.1 µM ([15]; VEGFR2) of 96%. For the same molecule, the remaining activity at 0.1 µM ([16]; MEK1) was 98%, the remaining activity at 0.1 µM ([17]; JAK2(JH1domain-catalytic)) was 100% and the remaining activity at 0.1 µM ([18]; CAMK2D) was 100%. For the same molecule, the remaining activity at 0.1 µM ([19]; ABL1(Q252H)-phosphorylated) was 99%, the remaining activity at 0.1 µM ([20]; EPHB1) was 100% and the remaining activity at 0.1 µM ([21]; CDK4-cyclinD1) was 100%. The remaining activity at 0.1 µM ([22]; CDK4-cyclinD3) was 100%, the remaining activity at 0.1 µM ([23]; RIPK4) was 100% and the remaining activity at 0.1 µM ([24]; SGK2) was 100%. The remaining activity at 0.1 µM ([25]; PKN1) was 91%, the remaining activity at 0.1 µM ([26]; PKAC-beta) was 92% and the remaining activity at 0.1 µM ([27]; ULK2) was 100%. The remaining activity at 0.1 µM ([28]; JAK1(JH1domain-catalytic)) was 100%.

CN(C[C@H](Cc1ccccc1)OP(=O)(O)O)C(=O)c1cncc(C#Cc2cnn(C(F)F)c2)c1 [Example 19, (S)-1-(5-((1-(difluoromethyl)-1H-pyrazol-4-yl)ethynyl)-N-methylnicotinamido)-3-phenylpropan-2-yl dihydrogen phosphate] gave a remaining activity at 0.1 µM [1] of 88%, a remaining activity at 0.1 µM [2] of 85% and a remaining activity at 0.1 µM [3] of 100%. It also gave a remaining activity at 0.1 µM [4] of 99%, a remaining activity at 0.1 µM [5] of 100% and a remaining activity at 0.1 µM [6] of 90%. It also gave a remaining activity at 0.1 µM [7] of 100%, a remaining activity at 0.1 µM [8] of 100% and a remaining activity at 0.1 µM [9] of 100%. For the same molecule, the remaining activity at 0.1 µM [10] was 100%, the remaining activity at 0.1 µM [11] was 100% and the remaining activity at 0.1 µM [12] was 100%. For the same molecule, the remaining activity at 0.1 µM [13] was 87%, the remaining activity at 0.1 µM [14] was 91% and the remaining activity at 0.1 µM [15] was 97%. The remaining activity at 0.1 µM [16] was 99%, the remaining activity at 0.1 µM [17] was 100% and the remaining activity at 0.1 µM [18] was 100%. The remaining activity at 0.1 µM [19] was 99%, the remaining activity at 0.1 µM [20] was 100% and the remaining activity at 0.1 µM [21] was 97%. It also gave a remaining activity at 0.1 µM [22] of 100%, a remaining activity at 0.1 µM [23] of 100% and a remaining activity at 0.1 µM [24] of 93%. It also gave a remaining activity at 0.1 µM [25] of 100%, a remaining activity at 0.1 µM [26] of 100% and a remaining activity at 0.1 µM [27] of 94%. For the same molecule, the remaining activity at 0.1 µM [28] was 100%.
